ChEMBL document CHEMBL5331068, “Briarane-type diterpenoids, the inhibitors of osteoclast formation by interrupting Keap1-Nrf2 interaction and activating Nrf2 pathway” (Eur J Med Chem, 2023)
Activity calls are given as the source filed them. The rule behind the calls is not given here.

Key:
BMDM = experiment: Anti-osteoclastogenesis activity in C57BL/6 mouse BMDM cells assessed as inhibition of RANKL-induced osteoclastogenesis at 10 uM incubated for 7 days in the presence of M-CSF by TRAP-staining based microscopic analysis relative to control; format: functional; details: for inhibition at 10 µM: C57BL/6, BMDM, 168 h, time 7 day
[1] = Cytotoxicity against C57BL/6 mouse BMDM cells incubated for 48 hrs by MTT assay; format: toxicity, cell-based; details: BMDM cells (bone marrow-derived macrophages)
[2] = molecular target: Kelch-like ECH-associated protein 1 (Homo sapiens, UniProt Q14145); experiment: Binding affinity to recombinant human Keap1 by SPR analysis
Sequence of Kelch-like ECH-associated protein 1 (Q14145 whole entry): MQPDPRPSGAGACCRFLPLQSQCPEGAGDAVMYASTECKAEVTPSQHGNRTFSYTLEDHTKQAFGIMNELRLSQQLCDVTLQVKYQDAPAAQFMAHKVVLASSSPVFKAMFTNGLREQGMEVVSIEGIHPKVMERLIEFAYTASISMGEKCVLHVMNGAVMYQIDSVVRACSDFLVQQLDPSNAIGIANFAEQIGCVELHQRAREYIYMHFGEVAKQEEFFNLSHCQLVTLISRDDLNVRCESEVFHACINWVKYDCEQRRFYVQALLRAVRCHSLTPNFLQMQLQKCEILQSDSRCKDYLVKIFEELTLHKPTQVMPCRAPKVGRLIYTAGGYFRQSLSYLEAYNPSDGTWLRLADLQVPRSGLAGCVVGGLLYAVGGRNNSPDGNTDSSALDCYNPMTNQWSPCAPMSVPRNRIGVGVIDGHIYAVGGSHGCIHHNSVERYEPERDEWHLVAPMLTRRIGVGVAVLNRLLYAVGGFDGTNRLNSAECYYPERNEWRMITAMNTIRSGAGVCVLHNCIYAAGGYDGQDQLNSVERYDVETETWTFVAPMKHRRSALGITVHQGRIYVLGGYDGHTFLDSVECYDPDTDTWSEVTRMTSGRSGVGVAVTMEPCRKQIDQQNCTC

| Structure (SMILES) | inhibition at 10 µM (BMDM) [%] | CC50 at 48 h [1] [µM] | Activity [2] | inhibition (BMDM; time 7.0 day) |
| --- | --- | --- | --- | --- |
| C=C1[C@H]2O[C@]3([C@@H](C)C(=O)O[C@H]3[C@H]1Cl)[C@@H](OC(C)=O)[C@H]1[C@@]3(CO3)[C@H](OC(=O)CC(C)C)C[C@H](OC(C)=O)[C@]1(C)[C@@H](OC(C)=O)[C@@H]2OC(C)=O | 51.7 | > 50 |  |  |
| C=C1/C=C/[C@H](OC(C)=O)[C@@]2(C)[C@@H](OC(C)=O)C[C@@H](OC(C)=O)[C@]3(CO3)[C@@H]2[C@H](OC(C)=O)[C@]2(O)[C@@H](C)C(=O)O[C@H]2[C@H]1Cl [GEMMACOLIDE H] | 13.1 | > 50 |  |  |
| CC(=O)OC1[C@@H](OC(=O)CC(C)C)[C@]2(CO2)[C@@H]2[C@H](OC(C)=O)[C@@]3(O)[C@H](/C=C(CCl)\C=C/[C@H](OC(=O)COC(=O)CC(C)C)[C@@]2(C)[C@H]1OC(C)=O)OC(=O)[C@@H]3C (stereo partly specified) | 86.6 | > 50 |  |  |
| CC(=O)O[C@H]1/C=C\C(COC(=O)CC(C)C)=C/[C@@H]2OC(=O)[C@H](C)[C@@]2(O)[C@@H](OC(C)=O)[C@H]2[C@@]3(CO3)[C@H](OC(=O)CC(C)C)C[C@H](OC(C)=O)[C@]12C | 25 | > 50 |  |  |
| CC(=O)O[C@H]1[C@@H](OC(=O)CC(C)C)[C@](O)(CO)[C@@H]2[C@H](OC(C)=O)[C@@]3(O)[C@H](/C=C(CO)\C=C/[C@H](OC(=O)COC(=O)CC(C)C)[C@@]2(C)[C@H]1OC(C)=O)OC(=O)[C@@H]3C | 30.8 | > 50 | inactive |  |
| CC(=O)O[C@H]1[C@@H](O)[C@](O)(CO)[C@@H]2[C@H](OC(C)=O)[C@@]3(O)[C@H](/C=C(CO)\C=C/[C@H](OC(C)=O)[C@@]2(C)[C@H]1OC(=O)CC(C)C)OC(=O)[C@@H]3C | 57.6 | > 50 | inactive |  |
| CC(=O)O[C@H]1/C=C\C(CCl)=C/[C@@H]2OC(=O)[C@H](C)[C@@]2(O)[C@@H](OC(C)=O)[C@H]2[C@@]3(CO3)[C@H](OC(C)=O)C[C@H](OC(=O)CC(C)C)[C@]12C | 18 | > 50 |  |  |
| C=C1CC[C@H](OC(C)=O)[C@]2(C)[C@@H](OC(C)=O)C[C@@H](OC(C)=O)/C(CO)=C\[C@@H]3OC(=O)[C@H](C)[C@@]3(O)[C@@H](OC(C)=O)[C@@H]12 | 40.7 | > 50 |  |  |
| C=C1/C=C/[C@H](OC(C)=O)[C@@]2(C)[C@@H](OC(C)=O)C[C@@H](OC(=O)CC(C)C)[C@]3(CO3)[C@@H]2[C@H](OC(C)=O)[C@]2(O)[C@@H](C)C(=O)O[C@H]2[C@H]1Cl [GEMMACOLIDE I] | 62.2 | > 50 |  |  |
| C=C1/C=C\[C@H](OC(C)=O)[C@@]2(C)[C@@H](OC(C)=O)CC[C@]3(CO3)[C@@H]2[C@H](OC(C)=O)[C@]2(O)[C@@H](C)C(=O)O[C@H]2[C@H]1Cl | 97.1 | > 50 | Active |  |
| CC(=O)O[C@H]1/C=C\C(CCl)=C/[C@@H]2OC(=O)[C@H](C)[C@@]2(O)[C@@H](OC(C)=O)[C@H]2[C@@]3(CO3)[C@H](OC(=O)CC(C)C)C[C@H](OC(C)=O)[C@]12C | 29.1 | > 50 |  |  |
| C=C1/C=C/[C@H](OC(C)=O)[C@@]2(C)[C@@H](OC(C)=O)CC[C@]3(CO3)[C@@H]2[C@H](OC(C)=O)[C@]2(O)[C@@H](C)C(=O)O[C@H]2[C@H]1Cl [JUNCEELLOLIDE C] | 75 | > 50 |  |  |
| CC(=O)O[C@H]1[C@@H](OC(=O)CC(C)C)[C@](O)(CO)[C@@H]2[C@H](OC(C)=O)[C@@]3(O)[C@H](/C=C(CO)\C=C/[C@H](OC(C)=O)[C@@]2(C)[C@H]1OC(C)=O)OC(=O)[C@@H]3C | 34.8 | > 50 | inactive |  |
| C=C1CC[C@H](OC(=O)CC(C)C)[C@]2(C)[C@@H](OC(C)=O)C[C@@H](OC(C)=O)/C(C)=C\[C@@H]3OC(=O)[C@H](C)[C@@]3(O)[C@@H](OC(C)=O)[C@@H]12 | 68 | > 50 |  |  |
| C=C1[C@H](Cl)[C@@H]2OC(=O)[C@H](C)[C@]23O[C@]1(O)C[C@H](OC(C)=O)[C@@]1(C)[C@@H](OC(C)=O)C[C@@H](OC(C)=O)[C@]2(CO2)[C@@H]1[C@@H]3OC(C)=O | 29.3 | > 50 | Active |  |
| C=C1CC[C@H](OC(C)=O)[C@]2(C)[C@@H](OC(C)=O)C[C@@H](OC(C)=O)/C(C(=O)OC)=C\[C@@H]3OC(=O)[C@H](C)[C@@]3(O)[C@@H](OC(C)=O)[C@@H]12 | 49.4 | > 50 |  |  |
| C=C1[C@H](Cl)[C@@H]2OC(=O)[C@H](C)[C@]23O[C@]1(O)C[C@H](OC(C)=O)[C@@]1(C)[C@@H](OC(C)=O)C[C@@H](OC(=O)CC(C)C)[C@]2(CO2)[C@@H]1[C@@H]3OC(C)=O |  | > 50 |  | inactive |
| CC(=O)O[C@H]1[C@@H](O)[C@](O)(CO)[C@@H]2[C@H](OC(C)=O)[C@@]3(O)[C@H](/C=C(COC(=O)CC(C)C)\C=C/[C@H](OC(C)=O)[C@@]2(C)[C@H]1OC(C)=O)OC(=O)[C@@H]3C | 100 | > 50 | inactive |  |

| Structure (SMILES) | inhibition at 10 µM (BMDM) [%] | CC50 at 48 h [1] [µM] | Activity [2] | inhibition (BMDM; time 7.0 day) |
| --- | --- | --- | --- | --- |
| CC(=O)O[C@H]1CC/C(C)=C\[C@@H]2OC(=O)[C@H](C)[C@@]2(O)[C@@H](OC(C)=O)[C@H]2[C@]3(CC[C@H](OC(C)=O)[C@]12C)CO3 [JUNCEELLOLIDE K] | 86.6 | > 50 |  |  |
| CC(=O)O[C@H]1/C=C\C(CO)=C/[C@@H]2OC(=O)[C@H](C)[C@@]2(O)[C@@H](OC(C)=O)[C@H]2[C@@]3(CO3)[C@H](OC(C)=O)C[C@H](OC(C)=O)[C@]12C |  | < 10 |  |  |
| CCOCC1=C/[C@@H]2OC(=O)[C@H](C)[C@@]2(O)[C@@H](OC(C)=O)[C@H]2[C@@]3(CO3)[C@H](OC(=O)CC(C)C)C(OC(C)=O)[C@H](OC(C)=O)[C@]2(C)[C@@H](OC(=O)COC(=O)CC(C)C)/C=C\1 (stereo partly specified) | 41.9 | > 50 |  |  |
| C=C1CC[C@H](OC(C)=O)[C@]2(C)[C@@H](OC(C)=O)CC/C(C)=C\[C@@H]3OC(=O)[C@H](C)[C@@]3(O)[C@@H](OC(C)=O)[C@@H]12 | 64.5 | > 50 |  |  |
| C=C1[C@H]2O[C@]3([C@H](C)C(=O)O[C@H]3[C@H]1Cl)[C@@H](OC(C)=O)[C@H]1[C@]3(CC[C@H](OC(C)=O)[C@]1(C)[C@@H](OC(C)=O)[C@@H]2OC(C)=O)CO3 | 12.2 | > 50 |  |  |
| C=C1CC[C@H](OC(C)=O)[C@]2(C)[C@@H](OC(C)=O)C[C@@H](OC(C)=O)/C(C)=C\[C@@H]3OC(=O)[C@H](C)[C@@]3(O)[C@@H](OC(C)=O)[C@@H]12 | 58.7 | > 50 |  |  |
| C=C1CC[C@H](OC(C)=O)[C@]2(C)[C@@H](OC(C)=O)C[C@@H](OC(C)=O)/C(COC(=O)CC(C)C)=C\[C@@H]3OC(=O)[C@H](C)[C@@]3(O)[C@@H](OC(C)=O)[C@@H]12 | 91.3 | > 50 |  |  |
| C=C1[C@H]2O[C@]3([C@@H](C)C(=O)O[C@H]3[C@H]1Cl)[C@@H](OC(C)=O)[C@H]1[C@@]3(CO3)[C@H](OC(C)=O)C[C@H](OC(C)=O)[C@]1(C)[C@@H](OC(C)=O)[C@@H]2OC(C)=O | 37.1 | > 50 | Active |  |
| CC(=O)O[C@H]1[C@@H](OC(=O)CC(C)C)[C@]2(CO2)[C@@H]2[C@H](OC(C)=O)[C@@]3(O)[C@H](/C=C(CO)\C=C/[C@H](OC(C)=O)[C@@]2(C)[C@H]1OC(C)=O)OC(=O)[C@@H]3C | 55.8 | > 50 |  |  |
| C=C1CC[C@H](OC(C)=O)[C@@]2(C)[C@@H](OC(C)=O)C[C@@H](OC(C)=O)[C@]3(CO3)[C@@H]2[C@H](OC(C)=O)[C@]2(O)[C@@H](C)C(=O)O[C@H]2[C@H]1Cl | 13.5 | > 50 | Active |  |
| CC(=O)O[C@H]1/C=C\C(CO)=C/[C@@H]2OC(=O)[C@H](C)[C@@]2(O)[C@@H](OC(C)=O)[C@H]2[C@@]3(CO3)[C@H](OC(=O)CC(C)C)C[C@H](OC(C)=O)[C@]12C |  | < 10 |  |  |
| CC(=O)O[C@H]1CC[C@]2(CO2)[C@@H]2[C@H](OC(C)=O)[C@@]3(O)[C@H](/C=C(/C)[C@H](OC(C)=O)C[C@H](OC(C)=O)[C@@]12C)OC(=O)[C@@H]3C [11ALPHA,20ALPHA-EPOXYJUNCEELLOLIDE] | 58.1 | > 50 |  |  |
| C=C1/C=C\[C@@H](OC(=O)COC(=O)CC(C)C)[C@@]2(C)[C@@H](OC(C)=O)[C@@H](OC(C)=O)[C@@H](OC(=O)CC(C)C)[C@]3(CO3)[C@@H]2[C@H](OC(C)=O)[C@]2(O)[C@@H](C)C(=O)O[C@H]2C1Cl (stereo partly specified) | 84.3 | > 50 |  |  |
| CC(=O)O[C@H]1/C=C\C(CO)=C/[C@@H]2OC(=O)[C@H](C)[C@@]2(O)[C@@H](OC(C)=O)[C@H]2[C@@]3(CO3)[C@H](OC(C)=O)C[C@H](OC(=O)CC(C)C)[C@]12C | 68 | > 50 |  |  |
| CCOCC1=C/[C@@H]2OC(=O)[C@H](C)[C@@]2(O)[C@@H](OC(C)=O)[C@H]2[C@@]3(CO3)[C@H](OC(=O)CC(C)C)C[C@H](OC(C)=O)[C@]2(C)[C@@H](OC(C)=O)/C=C\1 | 51.2 | > 50 |  |  |
| C=C1CC[C@H](OC(C)=O)[C@@]2(C)[C@@H](OC(C)=O)C[C@@H](OC(=O)CC(C)C)[C@]3(CO3)[C@@H]2[C@H](OC(C)=O)[C@]2(O)[C@@H](C)C(=O)O[C@H]2[C@H]1Cl [JUNCENOLIDE J] | 98.8 | > 50 |  |  |
| C=C1[C@H](OC(C)=O)C[C@H](OC(C)=O)[C@@]2(C)[C@@H](OC(C)=O)C[C@@H](OC(C)=O)[C@]3(CO3)[C@@H]2[C@H](OC(C)=O)[C@]2(O)[C@@H](C)C(=O)O[C@H]2[C@H]1Cl | 80.8 | > 50 |  |  |
